Test results reported in US20120129811A1, “TRICYCLIC INHIBITORS OF PRO-MATRIX METALLOPROTEINASE ACTIVATION” (priority 2010, published 2012).
Structures can show the parent of a compound that is named as a salt.

Tests used:
[1] = target: T1, full-length proMMP9(1-707) activation by catalytic MMP3 (Homo sapiens, UniProt P14780, R574P); experiment: proMMP9/MMP3 P126 Activation Assay; assay type: biochemical
T1 construct: made in house; host or cells: proMMP9: HEK293 (secreted); MMP3: E. coli
Method: proMMP9/MMP3 P126 Activation Assay
The reaction volume was 50 μL. […] Reactivity of residual MMP3 towards P-126 substrate was minimal under these conditions.

[2] = target: T2, proMMP9(20-445;ΔFnII) (SEQ ID NO:6) (Homo sapiens, UniProt P14780, DEL216-390); experiment: ThermoFluor binding assay with proMMP9(20-445;ΔFnII)
T2 construct: start methionine (N); made in house; host or cells: E. coli BL21(DE3) RIL
T2 sequence (P14780 with tags, fused parts or gaps DEL216-390): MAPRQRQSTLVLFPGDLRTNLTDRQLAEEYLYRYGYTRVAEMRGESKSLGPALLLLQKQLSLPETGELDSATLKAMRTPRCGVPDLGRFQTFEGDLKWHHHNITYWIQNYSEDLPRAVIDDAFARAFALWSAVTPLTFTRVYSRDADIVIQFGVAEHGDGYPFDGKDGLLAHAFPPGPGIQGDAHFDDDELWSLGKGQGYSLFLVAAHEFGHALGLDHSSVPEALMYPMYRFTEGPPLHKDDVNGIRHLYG
Method in brief: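 Protein thermal stability was measured with 2.8 μM proMMP9(20-445;ΔFnII) and 50 μM 1,8-ANS in 50 mM HEPES pH 7.0, 100 mM NaCl, 0.001% Tween-20, 2.5 mM MgCl2, 300 μM CaCl2, across serial compound dilutions. Samples were heated 40–90° C at 1° C/min with fluorescence read at 500 nm. Tm was fitted, and binding was derived from thermodynamic parameters obtained by DSC and ThermoFluor.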

[3] = target: T3, proMMP9(67-444;ΔFnII) (SEQ ID NO:5) (Homo sapiens, UniProt P14780, DEL216-390); experiment: ThermoFluor binding assay with proMMP9(67-444;ΔFnII)
T3 construct: start methionine (N); made in house; host or cells: E. coli BL21(DE3) RIL
T3 sequence (P14780 with tags, fused parts or gaps DEL216-390): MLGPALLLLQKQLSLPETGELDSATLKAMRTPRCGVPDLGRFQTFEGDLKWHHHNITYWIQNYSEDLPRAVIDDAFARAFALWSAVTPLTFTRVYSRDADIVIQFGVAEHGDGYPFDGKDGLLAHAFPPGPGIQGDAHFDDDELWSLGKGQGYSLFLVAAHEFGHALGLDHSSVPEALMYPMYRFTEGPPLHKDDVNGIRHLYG
Method in brief: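 Thermal shift of 3.5 μM proMMP9(67-444;ΔFnII), desalted beforehand, with 50 μM 1,8-ANS in 50 mM HEPES pH 7.0, 100 mM NaCl, 2.5 mM MgCl2, 300 μM CaCl2, 0.001% Tween-20. Heated 40–90 °C at 1 °C/min, fluorescence read at 500 nm; binding fitted from Tm shifts using DSC- and ThermoFluor-derived unfolding parameters.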

T1 sequence (P14780 20-707 R574P): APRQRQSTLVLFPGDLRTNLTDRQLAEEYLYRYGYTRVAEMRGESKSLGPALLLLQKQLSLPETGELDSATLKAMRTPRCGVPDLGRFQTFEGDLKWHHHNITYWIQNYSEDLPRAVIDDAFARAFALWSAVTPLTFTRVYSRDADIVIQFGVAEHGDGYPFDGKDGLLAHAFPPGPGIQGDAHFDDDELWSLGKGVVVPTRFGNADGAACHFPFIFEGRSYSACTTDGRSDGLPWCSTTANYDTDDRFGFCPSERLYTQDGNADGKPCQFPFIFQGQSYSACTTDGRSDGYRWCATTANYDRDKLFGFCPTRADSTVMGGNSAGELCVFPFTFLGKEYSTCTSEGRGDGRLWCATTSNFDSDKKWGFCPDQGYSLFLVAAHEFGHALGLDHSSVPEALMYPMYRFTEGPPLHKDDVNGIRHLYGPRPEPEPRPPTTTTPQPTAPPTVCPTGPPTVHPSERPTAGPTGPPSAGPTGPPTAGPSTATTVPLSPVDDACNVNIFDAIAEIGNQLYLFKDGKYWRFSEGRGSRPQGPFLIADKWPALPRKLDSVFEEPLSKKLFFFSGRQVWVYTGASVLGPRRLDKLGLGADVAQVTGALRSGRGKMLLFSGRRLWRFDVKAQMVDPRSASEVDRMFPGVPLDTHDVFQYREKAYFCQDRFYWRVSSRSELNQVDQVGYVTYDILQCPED

Compound	IC50 [1] [nM]	Kd [2] [nM]	Kd [3] [nM]
CCOc1ccncc1Nc1nc2c(ccc3c2ncn3C)s1 [Example 156, N-(4-Ethoxypyridin-3-yl)-6-methyl-6H-imidazo[4′,5′:5,6]benzo[1,2-d]thiazol-2-amine.HCl]	100	650	40
COc1ccc(C#N)cc1Nc1nc2c(ccc3c2cnn3C)s1 [Example 112, 4-Methoxy-3-(6-methyl-6H-3-thia-1,6,7-triaza-as-indacen-2-ylamino)-benzonitrile.TFA]	160	> 95000	7000
COc1c(F)cc(C(N)=O)cc1Nc1nc2c(ccc3c2ncn3C)s1 [Example 48, 3-Fluoro-4-methoxy-5-(6-methyl-6H-imidazo[4′,5′:3,4]benzo[2,1-d]thiazol-2-ylamino)-benzamide.HCl]	360	1900	810
Cc1[nH]c2c(ccc3sc(Nc4cc(C(N)=O)ccc4OC(C)C)nc32)c1C [Example 45, 3-(6,7-Dimethyl-8H-3-thia-1,8-diaza-as-indacen-2-ylamino)-4-isopropoxy-benzamide.HCl]	3900	780	3300
CC(C)Oc1ccc(F)cc1Nc1nc2c(ccc3ncn(CC(F)(F)F)c32)s1 [Example 142, (5-Fluoro-2-isopropoxy-phenyl)-[8-(2,2,2-trifluoro-ethyl)-8H-imidazo[4′,5′:3,4]-benzo[2,1-d]thiazol-2-yl]-amine.TFA]	1800	> 95000	2400
Cc1nc2ccc3sc(Nc4cc(F)ccc4OC(C)C)nc3c2n1C [Example 140, (7,8-Dimethyl-8H-imidazo[4′,5′:3,4]benzo[2,1-d]thiazol-2-yl)-(5-fluoro-2-isopropoxy-phenyl)-amine.TFA]	410	> 95000	810
Cn1cnc2c3nc(Nc4ccccc4[N+](=O)[O-])sc3ccc21 [Example 77, (6-Methyl-6H-imidazo[4′,5′:3,4]-benzo[2,1-d]thiazol-2-yl)-(2-nitro-phenyl)-amine.HCl]	1100	3200	2600
CC(C)Oc1ccc(S(N)(=O)=O)cc1Nc1nc2c(ccc3cnccc32)s1 [Example 105, 4-Isopropoxy-3-(thiazolo[4,5-f]isoquinolin-2-ylamino)-benzenesulfonamide.TFA]	850	65000	800
COc1ccc(S(=O)(=O)N2CCCCC2)cc1Nc1nc2c(ccc3c2ncn3C)s1 [Example 80, [2-Methoxy-5-(piperidine-1-sulfonyl)-phenyl]-(6-methyl-6H-imidazo[4′,5′:3,4]-benzo[2,1-d]thiazol-2-yl)-amine.HCl]	740	2300	960
Cn1ncc2c3nc(Nc4cc(S(N)(=O)=O)ccc4OC(F)(F)F)sc3ccc21 [Example 101, 3-(6-Methyl-6H-3-thia-1,6,7-triaza-as-indacen-2-ylamino)-4-trifluoromethoxy-benzenesulfonamide.TFA]	760	790	430
COc1ccc(S(=O)(=O)N2CCOCC2)cc1Nc1nc2c(ccc3c2ncn3C)s1 [Example 81, [2-Methoxy-5-(morpholine-4-sulfonyl)-phenyl]-(6-methyl-6H-imidazo[4′,5′:3,4]benzo[2,1-d]thiazol-2-yl)-amine.HCl]	750	5200	1200
Cn1cnc2c3nc(Nc4cc(C#N)ccc4OC(F)(F)F)sc3ccc21 [Example 164]	180	360	110
COc1ccc(F)cc1Nc1nc2c(ccc3c2cnn3C)s1 [Example 93, (5-Fluoro-2-methoxy-phenyl)-(6-methyl-6H-3-thia-1,6,7-triaza-as-indacen-2-yl)-amine.HCl]	180	19000	8100
Cn1cnc2c3nc(Nc4cc(S(N)(=O)=O)ccc4OC(F)(F)F)sc3ccc21 [Example 64, 3-(6-Methyl-6H-imidazo[4′,5′:3,4]benzo[2,1-d]thiazol-2-ylamino)-4-trifluoromethoxy-benzenesulfonamide.HCl]	150	970	900
CCn1c(C)nc2ccc3sc(Nc4ccccc4OC)nc3c21 [Example 120, (8-Ethyl-7-methyl-8H-imidazo[4′,5′:3,4]benzo[2,1-d]thiazol-2-yl)-(2-methoxy-phenyl)-amine.TFA]	480	3400	2600
CCn1c(C)nc2ccc3sc(Nc4cc(S(N)(=O)=O)ccc4OC(F)(F)F)nc3c21 [Example 122, 3-(8-Ethyl-7-methyl-8H-imidazo[4′,5′:3,4]benzo[2,1-d]thiazol-2-ylamino)-4-trifluoromethoxy-benzenesulfonamide.TFA]	650	1200	340
COc1ccc(S(C)(=O)=O)cc1Nc1nc2c(ccc3ncn(C)c32)s1 [Example 135, (5-Methanesulfonyl-2-methoxy-phenyl)-(8-methyl-8H-imidazo[4′,5′:3,4]benzo[2,1-d]thiazol-2-yl)-amine.TFA]	270	> 95000	640
Cc1nc2ccc3sc(Nc4cc(S(C)(=O)=O)ccc4OC(C)C)nc3c2n1C [Example 144, (7,8-Dimethyl-8H-imidazo[4′,5′:3,4]benzo[2,1-d]thiazol-2-yl)-(2-isopropoxy-5-methanesulfonyl-phenyl)-amine.TFA]	260	880	660
COc1ccncc1Nc1nc2c(ccc3nc(C)n(CC(F)(F)F)c32)s1 [Example 148, (4-Methoxy-pyridin-3-yl)-[7-methyl-8-(2,2,2-trifluoro-ethyl)-8H-imidazo[4′,5′:3,4]benzo[2,1-d]thiazol-2-yl]-amine.TFA]	220	860	290
CCCn1ncc2c3nc(Nc4cc(S(C)(=O)=O)ccc4OC)sc3ccc21 [Example 111, (5-Methanesulfonyl-2-methoxy-phenyl)-(6-propyl-6H-3-thia-1,6,7-triaza-as-indacen-2-yl)-amine.TFA]	370	3100	1700
COc1ccc(NC(C)=O)cc1Nc1nc2c(ccc3c2ncn3C)s1 [Example 49, N-[4-Methoxy-3-(6-methyl-6H-imidazo[4′,5′:3,4]benzo[2,1-d]thiazol-2-ylamino)-phenyl]-acetamide.HCl]	1300	4600	1600
CCOc1ccncc1Nc1nc2c(ccc3nc(C)n(CC)c32)s1 [Example 155, N-(4-Ethoxypyridin-3-yl)-8-ethyl-7-methyl-8H-imidazo[4′,5′:5,6]benzo[1,2-d]thiazol-2-amine.TFA]	150	720	140
CC(C)Oc1ccc(S(N)(=O)=O)cc1Nc1nc2c(ccc3ncn(CC(F)(F)F)c32)s1 [Example 137, 4-Isopropoxy-3-[8-(2,2,2-trifluoro-ethyl)-8H-imidazo[4′,5′:3,4]-benzo[2,1-d]thiazol-2-ylamino]-benzenesulfonamide.TFA]	1100	440	630
Cc1nc2c3nc(Nc4cnccc4OC(C)C)sc3ccc2n1C [Example 158, N-(4-Isopropoxypyridin-3-yl)-6,7-dimethyl-6H-imidazo[4′,5′:5,6]benzo[1,2-d]thiazol-2-amine.HCl]	64	260	14
Cc1nc2ccc3sc(Nc4cc(S(N)(=O)=O)ccc4OC(C)C)nc3c2n1C [Example 119, 3-(7,8-Dimethyl-8H-imidazo[4′,5′:3,4]-benzo[2,1-d]thiazol-2-ylamino)-4-isopropoxy-benzenesulfonamide.TFA]	500	910	1200
CCn1c(C)nc2ccc3sc(Nc4cc(S(C)(=O)=O)ccc4OC)nc3c21 [Example 133, (8-Ethyl-7-methyl-8H-imidazo[4′,5′:3,4]benzo[2,1-d]thiazol-2-yl)-(5-methanesulfonyl-2-methoxy-phenyl)-amine.TFA]	280	1300	310
COc1ccc(S(C)(=O)=O)cc1Nc1nc2c(ccc3[nH]ncc32)s1 [Example 110, (5-Methanesulfonyl-2-methoxy-phenyl)-(6H-3-thia-1,6,7-triaza-as-indacen-2-yl)-amine.TFA]	260	> 95000	340
